Measured values published in US9199947B2, “Biaryl-propionic acid derivatives and their use as pharmaceuticals” (SANOFI, priority 2013, dated 2015).

Molecular target: Recombinant human cathepsin A (Homo sapiens (Human), UniProt P10619)
Assay: Cathepsin A inhibitory activity (Bodipy FL-labeled bradykinin substrate, microfluidic capillary electrophoresis)
Format: biochemical
Conditions: Cathepsin A inhibitory activity, read-out: CATHA IC50
Procedure: Pharmacological Tests a) Cathepsin a Inhibitory Activity
Recombinant human cathepsin A (residues 29-480, with a C-terminal 10-His tag; R&D Systems, #1049-SE) was proteolytically activated with recombinant human cathepsin L (R&D Systems, #952-CY). Briefly, cathepsin A was incubated at 10 μg/ml with cathepsin L at 1 μg/ml in activation buffer (25 mM 2-(morpholin-4-yl)-ethanesulfonic acid (MES), pH 6.0, containing 5 mM dithiothreitol (DTT)) for 15 min at 37° C.
The activated cathepsin A was diluted in assay buffer (25 mM MES, pH 5.5, containing 5 mM DTT) and mixed with the test compound (dissolved in assay buffer containing (v/v) 3% DMSO) or, in the control experiments, with the vehicle in a multiple assay plate. After incubation for 15 min at room temperature, as substrate then bradykinin carrying an N-terminal® Bodipy FL (4,4-difluoro-5,7-dimethyl-4-bora-3a,4a-diaza-s-indacene-3-propionyl) label (JPT Peptide Technologies GmbH; dissolved in assay buffer) was added to the mixture. The final concentration of cathepsin A was 833 ng/ml and the final concentration of labeled bradykinin 2 μM. After incubation for 15 min at room temperature the reaction was stopped by the addition of stop buffer (130 mM 2-(4-(2-hydroxy-ethyl)-piperazin-1-yl)-ethanesulfonic acid, pH 7.4, containing (v/v) 0.013%° Triton X-100, 0.13% Coating Reagent 3 (Caliper Life Sciences), 6.5% DMSO and 20 μM ebelactone B (Sigma, #E0886)).
Uncleaved substrate and product were then separated by a microfluidic capillary electrophoresis on a LabChip® 3000 Drug Discovery System (12-Sipper-Chip; Caliper Life Sciences) and quantified by determination of the respective peak areas. Substrate turnover was calculated by dividing product peak area by the sum of substrate and product peak areas, and the enzyme activity and the inhibitory effect of the test compound thus quantified.

Recombinant human cathepsin A, sequence (P10619 29-326): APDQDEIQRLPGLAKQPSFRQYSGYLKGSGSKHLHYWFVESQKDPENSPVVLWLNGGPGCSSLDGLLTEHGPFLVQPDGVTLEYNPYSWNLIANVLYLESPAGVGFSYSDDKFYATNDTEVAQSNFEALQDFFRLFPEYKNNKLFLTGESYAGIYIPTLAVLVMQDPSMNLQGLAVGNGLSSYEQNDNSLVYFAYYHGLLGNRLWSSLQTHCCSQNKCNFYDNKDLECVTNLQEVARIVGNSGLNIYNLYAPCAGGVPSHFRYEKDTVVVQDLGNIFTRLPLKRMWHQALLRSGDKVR
Recombinant human cathepsin A, sequence (P10619 327-480): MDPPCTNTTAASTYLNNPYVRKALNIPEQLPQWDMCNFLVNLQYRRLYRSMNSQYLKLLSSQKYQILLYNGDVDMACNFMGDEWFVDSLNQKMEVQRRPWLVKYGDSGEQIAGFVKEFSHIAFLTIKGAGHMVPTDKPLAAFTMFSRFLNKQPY

Row | Structure (SMILES) | IC50
1 | Cc1cnc(C(CC(=O)O)c2cc(F)cc(-c3cccc(OC(F)(F)F)c3)c2)s1 (stereo not shown) [compound 124] | 975 nM
2 | Cc1cnc(C(CC(=O)O)c2cc(F)cc(-c3ccccc3C(N)=O)c2)s1 (stereo not shown) [compound 127] | 1230 nM
3 | Cc1cnc(C(CC(=O)O)c2cc(F)cc(-c3ccncc3)c2)s1 (stereo not shown) [compound 139] | 8650 nM
4 | O=C(O)CC(c1cc(F)cc(-c2cccc(F)c2F)c1)c1ncco1 (stereo not shown) [compound 129] | 1450 nM
5 | CC(=O)c1ccccc1-c1cc(F)cc(C(CC(=O)O)c2ncc(C)s2)c1 (stereo not shown) [compound 121] | 707 nM
6 | Cc1ccc(F)c(-c2cc(F)cc(C(CC(=O)O)c3ncco3)c2)c1 (stereo not shown) [compound 123] | 903 nM
7 | O=C(O)CC(c1cc(F)cc(-c2cccc(OC(F)(F)F)c2)c1)c1ncco1 (stereo not shown) [compound 138] | 2280 nM
8 | CC(=O)c1ccccc1-c1cccc(C(CC(=O)O)c2nnc(C)o2)c1 (stereo not shown) [compound 145] | 1720 nM

Same assay, conditions: read-out: CATHA IC50

Row | Structure (SMILES) | IC50
9 | COc1ccc(-c2ccc(F)cc2Cl)cc1C(CC(=O)O)c1ncc(C)s1 (stereo not shown) [compound 87] | 6360 nM
10 | CCOc1cccc(-c2cccc(C(CC(=O)O)c3nccs3)c2)c1 (stereo not shown) [compound 24] | 1500 nM
11 | Cc1ccc(F)c(-c2cc(Cl)cc(C(CC(=O)O)c3ncc(C)s3)c2)c1 (stereo not shown) [compound 105] | 232 nM
12 | Nc1ccc(-c2cccc(C(CC(=O)O)c3nccs3)c2)c(F)n1 (stereo not shown) [compound 23] | 1390 nM
13 | COc1ccc(-c2cccc(Cl)c2C)cc1C(CC(=O)O)c1ncc(C)s1 (stereo not shown) [compound 67] | 1310 nM
14 | O=C(O)CC(c1cccc(-c2cccc(Cl)c2)c1)c1nccs1 (stereo not shown) [compound 5] | 967 nM
15 | COc1ccc(-c2cc(Cl)cc(C(CC(=O)O)c3ncc(C)s3)c2)c(F)c1 (stereo not shown) [compound 113] | 563 nM
16 | COc1ccc(-c2cc(F)ccc2C)cc1C(CC(=O)O)c1ncc(C)s1 (stereo not shown) [compound 64] | 1200 nM
17 | Cc1cnc(C(CC(=O)O)c2cc(Cl)cc(-c3cccnc3)c2)s1 (stereo not shown) [compound 115] | 1060 nM
18 | COc1ccc(-c2ccccc2C(F)(F)F)cc1C(CC(=O)O)c1ncc(C)s1 (stereo not shown) [compound 95] | 10200 nM
19 | Cc1cccc(-c2cccc(C(CC(=O)O)c3nccs3)c2)c1C (stereo not shown) [compound 9] | 2480 nM
20 | COc1ccc(-c2ccc(C)cc2)cc1C(CC(=O)O)c1ncc(C)s1 (stereo not shown) [compound 68] | 1590 nM
21 | COc1ccc(-c2cccc(C(CC(=O)O)c3nccs3)c2)cn1 (stereo not shown) [compound 39] | 8350 nM
22 | COc1cc(-c2cccc(C(CC(=O)O)c3nccs3)c2)ccc1O (stereo not shown) [compound 29] | 2280 nM
23 | N#CCOc1ccc(-c2cccc(C(CC(=O)O)c3nccs3)c2)cc1 (stereo not shown) [compound 32] | 2420 nM
24 | Cc1ccccc1-c1cccc(C(CC(=O)O)c2nccs2)c1 (stereo not shown) [compound 12] | 3540 nM
25 | N#CCOc1cccc(-c2cccc(C(CC(=O)O)c3nccs3)c2)c1 (stereo not shown) [compound 27] | 1940 nM
26 | Cc1cnc(C(CC(=O)O)c2cccc(-c3ccccc3F)c2)s1 (stereo not shown) [compound 53] | 631 nM
27 | O=C(O)CC(c1cccc(-c2cccc(OCC(F)(F)F)c2)c1)c1nccs1 (stereo not shown) [compound 34] | 2460 nM
28 | Cn1nccc1-c1cccc(C(CC(=O)O)c2nccs2)c1 (stereo not shown) [compound 42] | 15100 nM
29 | COc1ccc(-c2ccc(C)cc2F)cc1C(CC(=O)O)c1ncc(C)s1 (stereo not shown) [compound 62] | 970 nM
30 | O=C(O)CC(c1cccc(-c2ccccc2Cl)c1)c1nccs1 (stereo not shown) [compound 8] | 2040 nM
31 | O=C(O)CC(c1cccc(-c2cccc(OCc3ccccc3)c2)c1)c1nccs1 (stereo not shown) [compound 35] | 2770 nM
32 | O=C(O)CC(c1cccc(-c2cccnc2Cl)c1)c1nccs1 (stereo not shown) [compound 41] | 11600 nM
33 | COc1cc(F)c(-c2cc(Cl)cc(C(CC(=O)O)c3ncc(C)s3)c2)c(F)c1 (stereo not shown) [compound 108] | 335 nM
34 | COc1ccc(-c2ccc(OC)c(C(CC(=O)O)c3ncc(C)s3)c2)cc1 (stereo not shown) [compound 92] | 7810 nM
35 | Cc1cnc(C(CC(=O)O)c2cc(Cl)cc(-c3ccccc3C#N)c2)s1 (stereo not shown) [compound 114] | 567 nM
36 | O=C(O)CC(c1cccc(-c2ccnc(F)c2)c1)c1nccs1 (stereo not shown) [compound 46] | 23600 nM
37 | COc1ccc(-c2cccc(F)c2Cl)cc1C(CC(=O)O)c1ncc(C)s1 (stereo not shown) [compound 82] | 4010 nM
